{"source": "patent US4594329A", "about": "“CRF analogs” (The Salk Institute for Biological Studies, priority 1984, dated 1986)", "key": {"[1]": {"system": "secretion of ACTH and β-endorphin", "experiment": "stimulation of ACTH and β-endorphin, background statements (in vitro and in vivo)", "details": "synthetic peptide"}, "[2]": {"system": "cultured rat pituitary cells", "experiment": "secretion of ACTH and β-endorphin by cultured rat pituitary cells", "format": "cell-based", "details": "cultured rat pituitary cells; read-out: concentration giving half-maximal responses, secretion of ACTH and β-endorphin"}, "[3]": {"experiment": "lowering of blood pressure, in vivo testing", "details": "synthetic peptide; extended time period"}, "[4]": {"system": "secretion of ACTH and β-endorphin", "details": "in mammals; cited from earlier work"}, "gastric acid production": {"system": "gastric acid production", "details": "cited from earlier work"}, "[5]": {"details": "in mammals; cited from earlier work"}}}
{"smiles": "CC[C@H](C)[C@H](NC(=O)[C@H](CC(=O)O)NC(=O)[C@H](CC(C)C)NC(=O)[C@H](CC(C)C)NC(=O)[C@H](CCCCN)NC(=O)[C@H](CCCNC(=N)N)NC(=O)[C@H](CC(N)=O)NC(=O)[C@H](CO)NC(=O)[C@H](Cc1c[nH]cn1)NC(=O)[C@H](C)NC(=O)[C@H](CCC(N)=O)NC(=O)[C@H](CCC(N)=O)NC(=O)[C@H](C)NC(=O)[C@H](CC(C)C)NC(=O)[C@H](CCC(N)=O)NC(=O)[C@H](CC(=O)O)NC(=O)[C@H](C)NC(=O)[C@H](CCCCN)NC(=O)[C@@H](NC(=O)[C@H](CCSC)NC(=O)[C@H](CCC(=O)O)NC(=O)[C@H](CC(C)C)NC(=O)[C@@H](NC(=O)[C@H](CCC(=O)O)NC(=O)[C@H](CCCNC(=N)N)NC(=O)[C@H](CC(C)C)NC(=O)[C@H](CC(C)C)NC(=O)[C@H](Cc1c[nH]cn1)NC(=O)[C@H](Cc1ccccc1)NC(=O)[C@@H](NC(=O)[C@H](CC(C)C)NC(=O)[C@H](CC(=O)O)NC(=O)[C@H](CC(C)C)NC(=O)[C@H](CO)NC(=O)[C@@H](NC(=O)[C@@H]1CCCN1C(=O)[C@@H]1CCCN1C(=O)[C@H](CCC(=O)O)NC(=O)[C@H](CCC(N)=O)NC(=O)[C@@H](N)CO)[C@@H](C)CC)[C@@H](C)O)C(C)C)[C@@H](C)O)C(=O)N[C@@H](C)C(N)=O", "note": "[oCRF]", "values": [{"measurement": "stimulation of ACTH and β-endorphin activities", "setting": "[1]", "value": "stimulate ACTH and β-endorphin activities in vitro and in vivo"}, {"measurement": "EC50", "setting": "[2]", "value": "~0.25", "unit": "nM"}, {"measurement": "lowering of blood pressure", "setting": "[3]", "value": "substantially lower blood pressure for an extended time period"}, {"measurement": "biological activity in stimulating the secretion of ACTH and β-endorphin (reported)", "setting": "[4]", "value": "stimulating the secretion of ACTH and β-endorphin"}, {"measurement": "gastric acid production", "setting": "gastric acid production", "value": "inhibits gastric acid production"}, {"measurement": "biological activity in lowering blood pressure (reported)", "setting": "[5]", "value": "biological activity in lowering blood pressure in mammals"}]}
